Experimental data published in PubChem BioAssay AID256 (DTP/NCI, 2004).
Several values for one entry are separate records, joined by “and”; a condition that tells them apart may be missing. Identical values can stand only once. Toxic doses and inconclusive results are not listed.

Tested on: CD2F1 mice, L1210 leukemia ip, survival T/C
Experiment: NCI In Vivo Anticancer Drug Screen. Data for tumor model L1210 Leukemia (intraperitoneal) in CD2F1 (CDF1) mice
Settings: endpoint: mean survival time, higher = longer survival
In short: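 Compound-dosed mice with transplantable tumor versus matched vehicle controls; endpoint ratio T/C reported.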

[1] = dose: 50.0 mg/kg/injection, schedule: Q01DX009 (ip), vehicle: other
[2] = dose: 100.0 mg/kg/injection, schedule: Q01DX001 (ip), vehicle: saline with Tween-80
[3] = dose: 100.0 mg/kg/injection, schedule: Q01DX009 (ip), vehicle: saline with Tween-80

CN(CC(=O)O)C(=N)N
T/C (dose: 250.0 mg/kg/injection, schedule: Q01DX Z (ip), vehicle: saline): 96 % of control
T/C (dose: 500.0 mg/kg/injection, schedule: Q01DX Z (ip), vehicle: saline): 96 % of control
T/C (dose: 1000.0 mg/kg/injection, schedule: Q01DX Z (ip), vehicle: saline): 100 % of control

CN(C)C(=O)OCC[N+](C)(C)CCCCCCCCCC[N+](C)(C)CCOC(=O)N(C)C
T/C (dose: 1.25 mg/kg/injection, schedule: Q04DX003 (ip), vehicle: saline): 103 % of control
T/C (dose: 2.5 mg/kg/injection, schedule: Q04DX003 (ip), vehicle: saline): 97 % of control

CC(C(=O)c1cccs1)=C(C(F)(F)F)C(F)(F)F
T/C (dose: 6.25 mg/kg/injection, schedule: Q01DX009 (ip), vehicle: other): 100 % of control
T/C (dose: 12.5 mg/kg/injection, schedule: Q01DX009 (ip), vehicle: other): 94 % of control
T/C (dose: 25.0 mg/kg/injection, schedule: Q01DX009 (ip), vehicle: other): 100 % of control
T/C [1]: 97 % of control

CCC1C(C)CNC1C (centres undefined)
T/C [2]: 100 % of control

c1ccc2c3c(ccc2c1)OCCOCCOCCOCCOc1ccc2ccccc2c1-3
T/C [2]: 91 % of control
T/C (dose: 200.0 mg/kg/injection, schedule: Q01DX001 (ip), vehicle: saline with Tween-80): 100 % of control
T/C (dose: 400.0 mg/kg/injection, schedule: Q01DX001 (ip), vehicle: saline with Tween-80): 100 % of control

COc1ccc(N(C)c2ccc(C(=C3C=CC(=[N+](C)CCO)C=C3)c3ccc(N(C)CCO)cc3)cc2)cc1
T/C (dose: 6.25 mg/kg/injection, schedule: Q04DX002 (ip), vehicle: saline with Tween-80): 108 % of control
T/C (dose: 25.0 mg/kg/injection, schedule: Q04DX002 (ip), vehicle: saline with Tween-80): 108 % of control

Clc1ccc(OCc2sc3ccc(Cl)cc3c2CN2CCCCC2)cc1
T/C (dose: 25.0 mg/kg/injection, schedule: Q01DX009 (ip), vehicle: saline with Tween-80): 100 % of control
T/C (dose: 50.0 mg/kg/injection, schedule: Q01DX009 (ip), vehicle: saline with Tween-80): 97 % of control
T/C [3]: 95 % of control

O=S(=O)(O)O.[NH2-].[NH2-].[Pt+2]
T/C (dose: 0.63 mg/kg/injection, schedule: Q04DX003 (ip), vehicle: dextrose): 98 % of control
T/C (dose: 1.25 mg/kg/injection, schedule: Q04DX003 (ip), vehicle: dextrose): 108 % of control
T/C (dose: 5.0 mg/kg/injection, schedule: Q04DX003 (ip), vehicle: dextrose): 95 % of control

CC12CCC(C(=O)C1)C1(C)CCCC(=O)C21 (centres undefined)
T/C (dose: 75.0 mg/kg/injection, schedule: Q01DX001 (ip), vehicle: other): 97 % of control

O=C(NC(=S)Nc1cccc(F)c1)c1cccc(Br)c1
T/C [1]: 98 % of control and 104 % of control
T/C (dose: 50.0 mg/kg/injection, schedule: Q04DX003 (ip), vehicle: other): 111 % of control
T/C (dose: 100.0 mg/kg/injection, schedule: Q01DX001 (ip), vehicle: other): 102 % of control
T/C (dose: 100.0 mg/kg/injection, schedule: Q04DX002 (ip), vehicle: other): 95 % of control
T/C (dose: 100.0 mg/kg/injection, schedule: Q04DX003 (ip), vehicle: other): 104 % of control
T/C (dose: 200.0 mg/kg/injection, schedule: Q01DX001 (ip), vehicle: other): 98 % of control
T/C (dose: 200.0 mg/kg/injection, schedule: Q04DX002 (ip), vehicle: other): 91 % of control
T/C (dose: 200.0 mg/kg/injection, schedule: Q04DX003 (ip), vehicle: other): 102 % of control
T/C (dose: 400.0 mg/kg/injection, schedule: Q04DX002 (ip), vehicle: other): 101 % of control
T/C (dose: 400.0 mg/kg/injection, schedule: Q04DX003 (ip), vehicle: other): 106 % of control

NNS(=O)(=O)c1ccc(Oc2ccc(S(=O)(=O)NN)cc2)cc1
T/C (dose: 50.0 mg/kg/injection, schedule: Q01DX009 (ip), vehicle: Klucel (hydroxypropylcellulose) (HPC)): 101 % of control
T/C (dose: 100.0 mg/kg/injection, schedule: Q01DX009 (ip), vehicle: Klucel (hydroxypropylcellulose) (HPC)): 96 % of control
T/C (dose: 200.0 mg/kg/injection, schedule: Q01DX009 (ip), vehicle: Klucel (hydroxypropylcellulose) (HPC)): 108 % of control

ClCCCN1CCCCC1CCl (centres undefined)
T/C (dose: 3.12 mg/kg/injection, schedule: Q04DX003 (ip), vehicle: saline): 104 % of control
T/C (dose: 6.25 mg/kg/injection, schedule: Q04DX003 (ip), vehicle: saline): 113 % of control
T/C (dose: 25.0 mg/kg/injection, schedule: Q04DX003 (ip), vehicle: saline): 173 % of control

COc1ccc(C(C)C(OC(=O)c2ccc([N+](=O)[O-])cc2)c2ccccc2)cc1 (centres undefined)
T/C [3]: 94 % of control
T/C (dose: 100.0 mg/kg/injection, schedule: Q04DX003 (ip), vehicle: saline with Tween-80): 88 % of control
T/C (dose: 200.0 mg/kg/injection, schedule: Q01DX009 (ip), vehicle: saline with Tween-80): 88 % of control
T/C (dose: 200.0 mg/kg/injection, schedule: Q04DX003 (ip), vehicle: saline with Tween-80): 97 % of control
T/C (dose: 400.0 mg/kg/injection, schedule: Q01DX009 (ip), vehicle: saline with Tween-80): 103 % of control
T/C (dose: 400.0 mg/kg/injection, schedule: Q04DX003 (ip), vehicle: saline with Tween-80): 94 % of control
